Results on 7 compounds are retold here after paper PMC2497451 (Anesthesia and analgesia, 2008).

The structures appear in SMILES notation.

T1 sequence (P02708 21-457): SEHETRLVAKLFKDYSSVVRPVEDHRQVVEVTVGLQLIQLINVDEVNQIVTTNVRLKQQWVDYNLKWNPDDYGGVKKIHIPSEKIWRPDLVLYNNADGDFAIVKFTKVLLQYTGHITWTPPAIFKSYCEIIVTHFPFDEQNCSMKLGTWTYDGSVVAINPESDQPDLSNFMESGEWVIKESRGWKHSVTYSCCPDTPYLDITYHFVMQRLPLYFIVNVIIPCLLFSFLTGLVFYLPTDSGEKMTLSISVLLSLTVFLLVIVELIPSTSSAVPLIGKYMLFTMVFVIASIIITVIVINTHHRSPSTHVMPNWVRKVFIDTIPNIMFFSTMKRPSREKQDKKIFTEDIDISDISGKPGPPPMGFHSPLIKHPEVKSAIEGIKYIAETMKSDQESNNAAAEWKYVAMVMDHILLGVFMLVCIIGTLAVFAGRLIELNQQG
T1 sequence (Q04844 21-493): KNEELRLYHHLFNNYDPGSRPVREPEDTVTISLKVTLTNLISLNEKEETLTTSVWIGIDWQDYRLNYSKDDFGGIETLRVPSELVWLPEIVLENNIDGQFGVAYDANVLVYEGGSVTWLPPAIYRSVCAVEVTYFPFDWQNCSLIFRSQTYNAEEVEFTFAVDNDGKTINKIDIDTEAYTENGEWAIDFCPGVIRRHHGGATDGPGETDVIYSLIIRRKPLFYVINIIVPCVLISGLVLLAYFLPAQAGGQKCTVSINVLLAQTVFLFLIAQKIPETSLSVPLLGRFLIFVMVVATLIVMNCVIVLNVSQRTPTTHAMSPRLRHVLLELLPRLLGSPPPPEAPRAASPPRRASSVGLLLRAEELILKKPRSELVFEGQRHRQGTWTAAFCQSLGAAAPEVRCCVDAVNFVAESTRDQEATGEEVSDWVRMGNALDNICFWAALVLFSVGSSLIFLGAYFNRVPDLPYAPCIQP
T1 sequence (Q07001 22-517): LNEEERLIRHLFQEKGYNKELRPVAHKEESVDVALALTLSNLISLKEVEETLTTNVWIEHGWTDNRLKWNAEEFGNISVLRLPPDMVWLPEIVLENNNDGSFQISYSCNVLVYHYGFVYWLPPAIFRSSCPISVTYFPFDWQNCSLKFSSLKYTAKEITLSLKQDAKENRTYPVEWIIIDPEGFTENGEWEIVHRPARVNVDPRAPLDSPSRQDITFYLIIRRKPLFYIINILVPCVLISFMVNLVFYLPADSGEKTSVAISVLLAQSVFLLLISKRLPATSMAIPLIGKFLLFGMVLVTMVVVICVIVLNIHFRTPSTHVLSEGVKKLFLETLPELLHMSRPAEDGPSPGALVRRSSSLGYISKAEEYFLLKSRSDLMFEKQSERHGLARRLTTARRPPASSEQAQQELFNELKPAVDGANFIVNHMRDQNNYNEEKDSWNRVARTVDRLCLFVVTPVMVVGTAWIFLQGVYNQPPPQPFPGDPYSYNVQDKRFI
T1 sequence (P11230 24-501 partner): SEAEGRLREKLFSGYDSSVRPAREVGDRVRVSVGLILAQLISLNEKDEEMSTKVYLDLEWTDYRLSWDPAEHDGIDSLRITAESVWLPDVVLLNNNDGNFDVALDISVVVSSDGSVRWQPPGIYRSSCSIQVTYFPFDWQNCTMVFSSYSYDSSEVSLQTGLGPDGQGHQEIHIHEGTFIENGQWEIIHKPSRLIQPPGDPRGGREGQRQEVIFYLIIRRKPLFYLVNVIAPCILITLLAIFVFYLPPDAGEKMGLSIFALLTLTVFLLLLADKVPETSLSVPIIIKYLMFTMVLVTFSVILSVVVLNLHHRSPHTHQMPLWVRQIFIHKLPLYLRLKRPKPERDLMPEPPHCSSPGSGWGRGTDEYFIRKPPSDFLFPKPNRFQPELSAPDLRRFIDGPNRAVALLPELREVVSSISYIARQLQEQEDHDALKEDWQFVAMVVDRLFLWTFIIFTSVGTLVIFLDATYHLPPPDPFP

One assay concerns the target T1, adult human muscle nicotinic acetylcholine receptor (nAChR, α2βεδ) (Homo sapiens, UniProt P02708+Q04844+Q07001).
Experiment: not given
The conditions noted are these: 300 μM ACh, -50 mV, pH 7.3, room temperature; competitive.
As to `COc1ccc2cc1Oc1cc3c(cc1OC)CC[N+](C)(C)[C@H]3Cc1ccc(cc1)Oc1c(OC)c(OC)cc3c1[C@@H](C2)[N+](C)(C)CC3` [metocurine], the IC50 (commonly the point on the concentration scale where inhibition reaches its midpoint) is 18 ± 2 nM. The same measure, in the same setting: the same measure for `COc1ccc(CC2c3cc(OC)c(OC)cc3CC[N+]2(C)CCC(=O)OCCCCCOC(=O)CC[N+]2(C)CCc3cc(OC)c(OC)cc3C2Cc2ccc(OC)c(OC)c2)cc1OC` (stereo not shown) [atracurium]: 17 ± 2 nM; for `CC(=O)O[C@H]1C[C@@H]2CC[C@@H]3[C@H](CC[C@@]4(C)[C@H]3C[C@H]([N+]3(C)CCCCC3)[C@@H]4OC(C)=O)[C@@]2(C)C[C@@H]1N1CCCCC1` [vecuronium]: 15 ± 2 nM; for `C=CC[N+]1([C@H]2C[C@H]3[C@@H]4CC[C@H]5C[C@H](O)[C@@H](N6CCOCC6)C[C@]5(C)[C@H]4CC[C@]3(C)[C@H]2OC(C)=O)CCCC1` [rocuronium]: 17 ± 2 nM.

Another assay has as its target T1, adult human muscle nicotinic acetylcholine receptor (nAChR, α2βεδ). Briefly: cell-based.
Conditions: not given
In turn, `CC(=O)O[C@H]1C[C@@H]2CC[C@@H]3[C@H](CC[C@@]4(C)[C@H]3C[C@H]([N+]3(C)CCCCC3)[C@@H]4OC(C)=O)[C@@]2(C)C[C@@H]1[N+]1(C)CCCCC1` [pancuronium] gave an IC50 of 6.3 ± 0.8 nM. On the same count and under the same terms, the same measure for `COc1cc2c3cc1Oc1cc(ccc1O)C[C@@H]1c4c(cc(OC)c(O)c4Oc4ccc(cc4)C[C@@H]3N(C)CC2)CC[N+]1(C)C` [(+)-tubocurarine]: 24 ± 2 nM; for `COc1ccc(C[C@@H]2c3cc(OC)c(OC)cc3CC[N@+]2(C)CCC(=O)OCCCCCOC(=O)CC[N@@+]2(C)CCc3cc(OC)c(OC)cc3[C@H]2Cc2ccc(OC)c(OC)c2)cc1OC` [cisatracurium]: 10 ± 1 nM.
